Data from US20120040966A1, “ANTI-VIRAL COMPOUNDS, TREATMENT, AND ASSAY” (priority 2008, published 2012).
pEC50, pIC50: −log10 of the molar value. Where two headings read alike, the source gives them in different places.

Experiments:
[1] = tested on: Influenza virus strain A/CA/04/2009 (H1N1); assay: organism not typed; type: cell-based; conditions: MDCK, 72 h, read-out: H1N1 EC50 (@ 50% Via)
[2] = tested on: influenza strain A/VN/1203/2004 (H5N1); assay: microbe, parasite or virus in culture; type: cell-based, Influenza A virus (H5N1)
[3] = tested on: Madin Darby Canine Kidney (MDCK) cells; assay: cells; type: cell-based; conditions: read-out: IC50 (toxicity)
[4] = Influenza A virus, H5N1, MDCK, 72 h, read-out: H5N1 EC50 (@ 50% Via)
[5] = Influenza A virus, H5N1, MDCK, 72 h, read-out: H5N1 EC50 (Inf Pt)
[6] = read-out: H5N1 EC50 (@ 50% Via)

Structure (SMILES)	pEC50 [1]	pEC50 [2, 4]	pEC50 [2, 5]	pIC50 ([3]; Canis lupus familiaris, MDCK)	pEC50 [2, 6]	pEC50 ([2]; read-out: H5N1 EC50 (Inf Pt))	pIC50 [3]
COc1ccc(C2NC(=O)NC3=C2CN(C(=O)CN2CCOCC2)c2ccccc23)cc1Br (stereo not drawn) [compound 23272]	5.46	5.04	5.06	< 4.40			
Cc1ccc(C2NC(=O)NC3=C2CCCc2ccccc23)cc1 (stereo not drawn) [compound 22083]	5.02	4.55		< 4.30			
CCOc1c(Br)cc(C2NC(=O)NC3=C2CCc2ccccc23)cc1Br (stereo not drawn) [compound 22704]	< 4.40	< 4.40	< 4.40	< 4.40			
CC(=O)Oc1ccc(C2NC(=O)NC3=C2COc2ccccc23)cc1Br (stereo not drawn) [compound 23097]	6.00	7.03	6.99	< 4.40			
COc1ccc(C2NC(=O)NC3=C2CN(C(=O)c2ccc4c(c2)OCO4)c2ccccc23)cc1Br (stereo not drawn) [compound 23274]	< 4.40	< 4.40	< 4.40	< 4.40			
COc1ccc(C2NC(=O)NC3=C2CN(C(=O)COC(C)=O)c2ccccc23)cc1Br (stereo not drawn) [compound 23206]	7.59	7.66	7.66	< 4.40	7.92	7.95	
COc1ccc(C2NC(=O)NC3=C2CCc2c(C)cc(C)cc23)cc1Br (stereo not drawn) [compound 22526]	< 4.30	< 4.32	< 4.32	5.16			
COc1cccc(C2NC(=O)NC3=C2COc2ccccc23)c1 (stereo not drawn) [compound 22107]	4.34	< 4.30	< 4.30	< 4.30			
O=C1NC2=C(COc3ccccc32)C(c2ccc(F)c(Br)c2)N1 (stereo not drawn) [compound 23098]	< 4.40	5.92	5.89	< 4.40			
O=C1NC2=C(COc3ccccc32)C(c2ccc(Cl)c(Cl)c2)N1 (stereo not drawn) [compound 22404]	< 4.30	5.80		< 4.30	6.03		
COc1ccc(C2NC(=O)NC3=C2COc2ccccc23)cc1C (stereo not drawn) [compound 23210]	5.51	6.48	6.51	< 4.40			
COc1ccc(C2NC(=O)NC3=C2CCc2ccccc23)cc1C (stereo not drawn) [compound 22516]	5.00			< 4.30			
COc1ccc(C2NC(=O)NC3=C2COc2ccccc23)cc1Br (stereo not drawn) [compound 22521]	5.40			< 4.30			
COc1ccc(C2NC(=O)NC3=C2CN(C(=O)CSCCN(C)C)c2ccccc23)cc1Br (stereo not drawn) [compound 25410]	4.81	6.15	6.17				
O=C1NC2=C(CCc3ccccc32)C(c2ccc(O)c(Br)c2)N1 (stereo not drawn) [compound 22709]	6.93			< 4.28			
COc1ccc(C2NC(=O)NC3=C2CN(C)c2ccccc23)cc1Br (stereo not drawn) [compound 23101]		< 5.22	< 5.22	< 4.40			
COc1cccc(C2NC(=O)NC3=C2CCc2c(OC)cccc23)c1 (stereo not drawn) [compound 22111]		< 4.30	< 4.30	< 4.30			
Oc1nc(-c2ccc3c(c2)OCO3)c2c(n1)-c1ccccc1CCC2 [compound 22118]		< 4.30	< 4.30	< 4.30			
O=C1NC2=C(CCc3ccccc32)C(c2ccc(F)c(Br)c2)N1 (stereo not drawn) [compound 22409]	5.85			< 4.30			
Cc1cc(C2NC(=O)NC3=C2CCc2ccccc23)ccc1O (stereo not drawn) [compound 22706]	5.32			< 4.30			
COc1ccc(C2NC(=O)NC3=C2CCc2ccccc23)cc1Br (stereo not drawn) [compound 22405]	6.37			< 4.30			
COc1ccc(-c2nc(=O)[nH]c3c2CCc2ccccc2-3)cc1Br [compound 22710]		< 4.30	< 4.30	< 4.30			
COc1ccc(C2NC(=O)NC3=C2CN(C(C)=O)c2ccccc23)cc1Br (stereo not drawn) [compound 23099]	8.21			< 4.40			
COc1ccc(C2NC(=O)NC3=C2COc2ccccc23)cc1 (stereo not drawn) [compound 22129]		< 4.30	< 4.30	< 4.30			

Structure (SMILES)	pEC50 [1]	pEC50 [2, 4]	pEC50 [2, 5]	pIC50 ([3]; Canis lupus familiaris, MDCK)	pEC50 [2, 6]	pEC50 ([2]; read-out: H5N1 EC50 (Inf Pt))	pIC50 [3]
Oc1nc(-c2ccc3c(c2)OCO3)c2c(n1)-c1ccccc1CC2 [compound 22122]			< 4.30		< 4.30		< 4.30
COc1ccc(C2NC(=O)NC3=C2CN(C(=O)CN)c2ccccc23)cc1Br (stereo not drawn) [compound 24716]		5.51	5.51	< 4.40			
COc1cc(OC)cc(C2NC(=O)NC3=C2CCc2ccccc23)c1 (stereo not drawn) [compound 22518]		5.33	5.47	< 4.30			
Cc1cc(C2NC(=O)NC3=C2CCc2ccccc23)cc(C)c1O (stereo not drawn) [compound 22705]		< 4.40	5.00	< 4.40			
Cc1cccc(C2NC(=O)NC3=C2CCCc2ccccc23)c1 (stereo not drawn) [compound 22345]		4.73	4.87	< 4.30			
COc1ccc(C2NC(=O)NC3=C2CSc2ccccc23)cc1Br (stereo not drawn) [compound 22412]	6.45			< 4.30			
COc1ccc(C2NC(=O)Nc3c2cnc2ccccc32)cc1Br (stereo not drawn) [compound 23273]		5.68	5.80	< 4.40			
Cc1cccc(C2NC(=O)NC3=C2COc2ccccc23)c1 (stereo not drawn) [compound 22109]	< 4.30			< 4.30			
COc1ccc(C2NC(=O)NC3=C2CN(C(=O)C[n+]2ccccc2)c2ccccc23)cc1Br (stereo not drawn) [compound 25009]		5.15	5.15	< 4.40			
COc1cccc(-c2nc(O)nc3c2COc2ccccc2-3)c1 [compound 22108]		< 4.30	< 4.30	< 4.30			
O=C1NC2=C(CCc3ccccc32)C(c2ccc3c(c2)OCCO3)N1 (stereo not drawn) [compound 22343]		4.34	4.50	< 4.30			
O=C1NC2=C(Cc3ccccc32)C(c2ccc3c(c2)OCO3)N1 (stereo not drawn) [compound 22126]		< 4.30	< 4.30	< 4.30			
O=C1NC2=C(CCCc3ccccc32)C(c2ccc3c(c2)OCO3)N1 (stereo not drawn) [compound 22117]		5.32	5.54	< 4.30	5.17	5.40	
COc1ccc(C2NC(=O)NC3=C2CN(C(=O)Cn2ccnc2)c2ccccc23)cc1Br (stereo not drawn) [compound 25010]		> 6.50	7.09	< 4.40			
COc1cc(C2NC(=O)NC3=C2CCc2ccccc23)cc(OC)c1OC (stereo not drawn) [compound 22115]		< 4.30	< 4.30	< 4.30			
COc1ccc2c(c1)CCC1=C2NC(=O)NC1c1ccc2c(c1)OCO2 (stereo not drawn) [compound 22344]		< 4.30	< 4.30	< 4.30			
COc1ccc(C2NC(=O)NC3=C2CNc2ccccc23)cc1Br (stereo not drawn) [compound 23100]		6.20	6.14	< 4.40			
Cc1ccc(-c2nc(O)nc3c2COc2ccccc2-3)cc1C [compound 22106]		< 4.30	< 4.30	< 4.30			
COc1ccc(C2NC(=O)NC3=C2CC(C)c2ccccc23)cc1Br (stereo not drawn) [compound 22700]	7.01			< 4.32			
Nc1nc(-c2ccc3c(c2)OCO3)c2c(n1)-c1ccccc1CC2 [compound 22120]		< 4.30	< 4.30	< 4.30			
Oc1nc(-c2ccc3c(c2)OCO3)c2c(n1)-c1ccccc1CC2 [compound 22085]				< 4.30	> 6.32		
COc1cccc2c1CCc1c(-c3ccc(C)cc3)nc(O)nc1-2 [compound 22124]			< 4.30		< 4.30		< 4.30
Nc1ccc(C2NC(=O)NC3=C2CCc2ccccc23)cc1 (stereo not drawn) [compound 22350]		4.51	4.75	< 4.30			
